Legend:
[1] = target: T1, CaV1.3 LTCCs (Rattus norvegicus, UniProt P27732); conditions: more potent than 6; ref previous study; cited from earlier work
[2] = target: T1, CaV1.3 LTCCs; assay: FLIPR Fluo-8 calcium influx assay, HEK293 cells stably expressing CaV1.3; format: cell-based; conditions: for Selectivity, ratio of the IC50 values (CaV1.2/CaV1.3): CaV1.3 over CaV1.2; for binding to CaV1.3 LTCCs (in words): bulky bicyclic ring analogues; for binding affinity for CaV1.3 LTCCs (in words): even at 100 µM
[3] = target: CaV1.2 LTCCs (Oryctolagus cuniculus, UniProt P15381); assay: FLIPR Fluo-8 calcium influx assay, HEK293 cells stably expressing CaV1.2; format: cell-based, rabbit; conditions: for binding to CaV1.2 LTCCs (in words): bulky bicyclic ring analogues; for binding affinity for CaV1.2 LTCCs (in words): even at 100 µM
Sequence of CaV1.2 LTCCs (P15381 whole entry): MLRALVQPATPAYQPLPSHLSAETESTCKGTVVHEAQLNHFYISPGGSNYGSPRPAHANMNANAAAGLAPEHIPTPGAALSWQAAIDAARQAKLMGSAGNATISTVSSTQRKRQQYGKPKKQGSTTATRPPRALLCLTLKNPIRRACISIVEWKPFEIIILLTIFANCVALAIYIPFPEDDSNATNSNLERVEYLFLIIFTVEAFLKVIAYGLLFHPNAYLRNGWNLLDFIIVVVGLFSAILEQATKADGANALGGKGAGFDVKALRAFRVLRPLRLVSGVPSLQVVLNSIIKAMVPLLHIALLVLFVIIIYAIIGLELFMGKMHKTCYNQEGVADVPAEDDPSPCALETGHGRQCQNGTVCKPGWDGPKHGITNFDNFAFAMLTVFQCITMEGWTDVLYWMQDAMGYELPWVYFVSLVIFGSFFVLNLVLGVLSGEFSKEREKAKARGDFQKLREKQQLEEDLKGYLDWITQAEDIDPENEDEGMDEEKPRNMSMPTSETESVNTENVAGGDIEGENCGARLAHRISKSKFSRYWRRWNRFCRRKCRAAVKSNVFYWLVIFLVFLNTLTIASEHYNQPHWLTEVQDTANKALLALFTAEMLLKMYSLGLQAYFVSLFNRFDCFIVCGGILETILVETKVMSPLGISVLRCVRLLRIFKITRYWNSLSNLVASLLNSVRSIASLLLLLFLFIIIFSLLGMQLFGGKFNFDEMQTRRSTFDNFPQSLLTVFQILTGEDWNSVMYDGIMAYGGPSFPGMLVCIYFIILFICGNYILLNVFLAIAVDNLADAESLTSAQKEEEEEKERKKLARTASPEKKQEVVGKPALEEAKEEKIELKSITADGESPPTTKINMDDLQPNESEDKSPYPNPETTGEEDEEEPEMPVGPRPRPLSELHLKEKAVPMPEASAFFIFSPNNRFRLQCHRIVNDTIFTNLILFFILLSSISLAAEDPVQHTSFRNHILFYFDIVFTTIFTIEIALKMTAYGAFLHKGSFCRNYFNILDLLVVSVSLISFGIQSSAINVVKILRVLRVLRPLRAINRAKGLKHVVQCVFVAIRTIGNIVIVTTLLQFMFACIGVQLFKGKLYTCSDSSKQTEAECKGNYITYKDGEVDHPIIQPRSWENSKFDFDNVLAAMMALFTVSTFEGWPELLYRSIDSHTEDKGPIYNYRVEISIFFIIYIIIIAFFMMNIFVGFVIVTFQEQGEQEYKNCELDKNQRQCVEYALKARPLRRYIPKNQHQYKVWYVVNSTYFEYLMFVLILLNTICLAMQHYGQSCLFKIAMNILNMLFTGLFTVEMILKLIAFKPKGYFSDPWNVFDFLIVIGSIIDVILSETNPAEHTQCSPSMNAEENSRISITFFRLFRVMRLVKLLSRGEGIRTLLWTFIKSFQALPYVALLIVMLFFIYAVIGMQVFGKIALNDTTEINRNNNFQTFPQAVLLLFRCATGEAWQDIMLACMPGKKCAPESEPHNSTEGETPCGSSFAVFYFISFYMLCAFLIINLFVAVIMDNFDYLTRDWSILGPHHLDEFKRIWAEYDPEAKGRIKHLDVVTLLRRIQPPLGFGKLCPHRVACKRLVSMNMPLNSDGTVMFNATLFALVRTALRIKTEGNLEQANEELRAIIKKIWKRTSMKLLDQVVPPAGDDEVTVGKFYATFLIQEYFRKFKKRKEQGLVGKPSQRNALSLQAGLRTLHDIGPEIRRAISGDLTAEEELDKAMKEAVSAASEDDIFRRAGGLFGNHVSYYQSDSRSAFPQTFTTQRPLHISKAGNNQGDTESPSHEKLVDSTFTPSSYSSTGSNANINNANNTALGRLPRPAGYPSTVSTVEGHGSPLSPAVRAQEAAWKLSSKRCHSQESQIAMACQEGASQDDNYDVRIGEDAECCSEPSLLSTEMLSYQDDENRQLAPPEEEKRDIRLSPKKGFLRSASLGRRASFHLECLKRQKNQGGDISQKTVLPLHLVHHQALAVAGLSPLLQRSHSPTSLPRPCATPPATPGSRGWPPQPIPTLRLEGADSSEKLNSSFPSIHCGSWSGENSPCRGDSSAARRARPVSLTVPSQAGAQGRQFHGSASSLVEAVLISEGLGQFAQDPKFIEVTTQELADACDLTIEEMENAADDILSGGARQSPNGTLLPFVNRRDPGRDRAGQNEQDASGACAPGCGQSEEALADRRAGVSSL
Sequence of CaV1.2 LTCCs (P54287 whole entry partner): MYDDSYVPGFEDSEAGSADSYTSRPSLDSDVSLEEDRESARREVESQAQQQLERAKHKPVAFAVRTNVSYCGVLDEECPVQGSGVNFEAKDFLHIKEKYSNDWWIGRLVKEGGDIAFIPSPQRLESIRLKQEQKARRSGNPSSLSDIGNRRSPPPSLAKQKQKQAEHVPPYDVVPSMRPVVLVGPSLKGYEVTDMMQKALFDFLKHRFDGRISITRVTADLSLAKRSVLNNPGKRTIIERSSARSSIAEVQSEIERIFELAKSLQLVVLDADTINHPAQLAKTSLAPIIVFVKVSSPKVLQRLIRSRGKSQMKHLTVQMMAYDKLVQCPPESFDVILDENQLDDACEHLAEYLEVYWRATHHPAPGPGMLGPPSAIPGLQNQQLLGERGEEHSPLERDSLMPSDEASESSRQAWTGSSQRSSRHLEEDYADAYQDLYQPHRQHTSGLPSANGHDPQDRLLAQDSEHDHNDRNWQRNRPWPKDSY
Sequence of CaV1.2 LTCCs (P54290 25-944 partner): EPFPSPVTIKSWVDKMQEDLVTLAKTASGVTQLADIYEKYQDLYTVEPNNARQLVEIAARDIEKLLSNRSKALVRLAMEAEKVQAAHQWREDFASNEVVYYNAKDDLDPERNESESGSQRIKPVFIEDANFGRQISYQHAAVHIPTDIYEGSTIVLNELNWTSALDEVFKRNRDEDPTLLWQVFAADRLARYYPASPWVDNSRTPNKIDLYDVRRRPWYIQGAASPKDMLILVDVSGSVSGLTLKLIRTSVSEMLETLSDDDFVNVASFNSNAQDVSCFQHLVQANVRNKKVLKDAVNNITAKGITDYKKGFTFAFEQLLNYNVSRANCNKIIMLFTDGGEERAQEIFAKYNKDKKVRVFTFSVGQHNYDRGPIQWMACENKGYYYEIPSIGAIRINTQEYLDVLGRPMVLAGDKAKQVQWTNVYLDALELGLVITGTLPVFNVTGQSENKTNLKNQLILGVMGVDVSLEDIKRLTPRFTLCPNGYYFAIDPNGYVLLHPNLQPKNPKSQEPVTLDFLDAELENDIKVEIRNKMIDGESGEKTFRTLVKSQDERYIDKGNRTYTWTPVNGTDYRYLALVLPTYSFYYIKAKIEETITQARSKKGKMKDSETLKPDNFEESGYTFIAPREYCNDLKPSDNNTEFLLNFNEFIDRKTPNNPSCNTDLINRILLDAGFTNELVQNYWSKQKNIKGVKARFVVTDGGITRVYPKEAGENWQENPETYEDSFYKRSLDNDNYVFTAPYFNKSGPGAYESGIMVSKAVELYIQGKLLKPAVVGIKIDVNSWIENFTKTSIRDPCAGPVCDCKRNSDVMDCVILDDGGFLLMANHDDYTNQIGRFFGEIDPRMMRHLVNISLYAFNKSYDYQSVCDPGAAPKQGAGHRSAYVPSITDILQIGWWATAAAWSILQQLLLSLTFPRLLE
Sequence of CaV1.2 LTCCs (P54290 945-1091 partner): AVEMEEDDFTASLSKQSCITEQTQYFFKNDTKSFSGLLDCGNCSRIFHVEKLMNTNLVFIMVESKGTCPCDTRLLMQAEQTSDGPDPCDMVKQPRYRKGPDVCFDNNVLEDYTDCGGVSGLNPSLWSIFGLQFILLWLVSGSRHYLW

SMILES: O=C1CC(=O)N(C2CC3CCC2C3)C(=O)N1CCc1ccc(Cl)cc1 (mixture of isomers) [Compound 7, N-(4-chlorophenethyl)-N′-(±)-endo-norbornylpyrimidine-2,4,6-(1H,3H,5H)-trione]
- potency toward CaV1.3 LTCC relative to 6 [1]: 3 fold

SMILES: C[C@@H](C1CCCCC1)N1C(=O)CC(=O)N(CCc2ccc(Cl)cc2)C1=O [Compound 44, (S)-1-(4-Chlorophenethyl)-3-(1-cyclohexylethyl)pyrimidine-2,4,6(1H,3H,5H)-trione]
- Selectivity, ratio of the IC50 values (CaV1.2/CaV1.3) [2]: >12

SMILES: C[C@H](C1CCCCC1)N1C(=O)CC(=O)N(CCc2ccc(Cl)cc2)C1=O [Compound 46, (R)-1-(4-Chlorophenethyl)-3-(1-cyclohexylethyl)pyrimidine-2,4,6(1H,3H,5H)-trione]
- Selectivity, ratio of the IC50 values (CaV1.2/CaV1.3) [2]: >12

SMILES: O=C1CC(=O)N([C@H]2C[C@H]3CC[C@@H]2C3)C(=O)N1CCc1cccc(Cl)c1 [Compound 49, 1-((1R,2S,4S)-Bicyclo[2.2.1]heptan-2-yl)-3-(3-chlorophenethyl)pyrimidine-2,4,6(1H,3H,5H)-trione]
- Selectivity, ratio of the IC50 values (CaV1.2/CaV1.3) [2]: >29

SMILES: CC1(C)[C@@H]2CC[C@@]1(C)[C@@H](N1C(=O)CC(=O)N(CCc3cccc(Cl)c3)C1=O)C2 [Compound 53]
- binding to CaV1.3 LTCCs (in words) [2]: almost no binding
- binding to CaV1.2 LTCCs (in words) [3]: almost no binding

SMILES: CC1(C)[C@@H]2CC[C@@]1(C)[C@@H](N1C(=O)CC(=O)N(CCc3ccc(Cl)cc3)C1=O)C2 [Compound 54]
- binding to CaV1.3 LTCCs (in words) [2]: almost no binding
- binding to CaV1.2 LTCCs (in words) [3]: almost no binding

SMILES: CC1(C)[C@@H]2CC[C@H](CN3C(=O)CC(=O)N(CCc4cccc(Cl)c4)C3=O)[C@H]1C2 [Compound 55]
- binding to CaV1.3 LTCCs (in words) [2]: almost no binding
- binding to CaV1.2 LTCCs (in words) [3]: almost no binding

SMILES: CC1(C)[C@@H]2CC[C@H](CN3C(=O)CC(=O)N(CCc4ccc(Cl)cc4)C3=O)[C@H]1C2 [Compound 56]
- binding to CaV1.3 LTCCs (in words) [2]: almost no binding
- binding to CaV1.2 LTCCs (in words) [3]: almost no binding

SMILES: O=C1CC(=O)N([C@H]2CCNC2)C(=O)N1CCc1cccc(Cl)c1 [Compound 65]
- binding affinity for CaV1.3 LTCCs (in words) [2]: no binding affinity
- binding affinity for CaV1.2 LTCCs (in words) [3]: no binding affinity

SMILES: O=C(O)[C@H]1CC[C@@H](N2C(=O)CC(=O)N(CCc3cccc(Cl)c3)C2=O)C1 [Compound 67]
- binding affinity for CaV1.3 LTCCs (in words) [2]: no binding affinity
- binding affinity for CaV1.2 LTCCs (in words) [3]: no binding affinity

SMILES: O=C1CC(=O)N([C@H]2CCC[C@@H]2O)C(=O)N1CCc1cccc(Cl)c1 [Compound 69]
- binding affinity for CaV1.3 LTCCs (in words) [2]: no binding affinity
- binding affinity for CaV1.2 LTCCs (in words) [3]: no binding affinity

From paper PMC4595045 (Journal of medicinal chemistry, 2013)
